System: HO-1 and GCLc
Assay: Western blot of NRF2-dependent proteins HO-1 and GCLc in AREc32 cells
Format: cell-based
Details: 30 μM, 24 h, western blot vs basal
Procedure: AREc32 cells were seeded in 6 multi-well plates (1 × 10^6 cells/well) for 24 h and treated with compounds 7a and 7b (30 µM) and culture medium (basal) for 24 h. Thereafter, cells were collected and lysed in ice-cold lysis buffer (10% glycerol, 137 mM NaCl, 1% Nonidet P-40, 20 mM Tris HCl pH 7.5, 1 mM phenylmethylsulfonyl fluoride, 20 mM NaF, 1 mM sodium pyrophosphate, 1 μg/mL leupeptin and 1 mM Na3VO4). Then proteins (30 μg) were resolved by gel electrophoresis on sodium dodecyl sulfate–polyacrylamide (10% and 12%) and transferred to Immobilion-P membranes (MilliporeSigma, Madrid, Spain). The membranes were incubated with anti-GCLc (1:1000, Ab41463 (Abcam, Cambridge, MA, USA), anti-HO-1 (1:1000, ab68477, Abcam) or anti-Actin (1:100,000, A3854, Merck, Madrid, Spain). Peroxidase-conjugated secondary antibodies (1:10,000 and antirabbit: SC-2357, Santa Cruz Biotechnology, Dallas, TX, USA) were employed to detect the proteins by enhanced chemiluminescence. Band intensities corresponding to immunoblot detection of protein samples were quantitated with Fiji software.
Once in the nucleus, NRF2 binds to small MafG protein, and the resulting complex binds to the ARE sequences at the DNA to initiate the expression of phase II antioxidant proteins. HO-1 and GCLc are two prominent examples of antioxidant enzymes regulated by the NRF2-ARE pathway related to the heme group processing and the synthesis of glutathione, the major antioxidant defense inside the cells. […] Thereafter, protein expression was evaluated.

SMILES | GCLc expression | HO-1 expression
O=C1CN(CCOC(=O)CCCC[C@H]2CCSS2)[C@@H](c2ccccc2Cl)c2cc(Cl)ccc2N1 [(S,R)-7b, 2-((R)-7-Chloro-5-(2-chlorophenyl)-2-oxo-1,2,3,5-tetrahydro-4H-benzo[e][1,4]diazepin-4-yl)ethyl 5-((S)-1,2-dithiolan-3-yl)pentanoate] | significantly increased | significantly increased
O=C1CN(CCOC(=O)CCCC[C@H]2CCSS2)[C@H](c2ccccc2Cl)c2cc(Cl)ccc2N1 [(S,S)-7a, 2-((S)-7-Chloro-5-(2-chlorophenyl)-2-oxo-1,2,3,5-tetrahydro-4H-benzo[e][1,4]diazepin-4-yl)ethyl 5-((S)-1,2-dithiolan-3-yl)pentanoate] | significantly increased | significantly increased

Source: publication PMC8772772, “Enantioselective Synthesis and Pharmacological Evaluation of Aza-CGP37157–Lipoic Acid Hybrids for the Treatment of Alzheimer’s Disease” (Antioxidants, 2022)
